Experimental data reported in paper PMC5656836, “Distinct activation mechanisms trigger the trypanocidal activity of DNA damaging prodrugs” (Molecular Microbiology, 2017).
Where two headings read alike, the source gives them in different places.

Legend:
[1] = system: bloodstream form T. brucei; experiment: Growth inhibition of wild type / control bloodstream form T. brucei (resazurin); format: cell-based; settings: for EC50: Trypanosoma brucei
RH1^RC1 T. brucei = experiment: microbe, parasite or virus in culture; format: cell-based; settings: for EC50: Trypanosoma brucei, read-out: EC50 RH1^RC1;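 as to ratio (fold difference in EC50 between RH1^RC1 and wild type): resistant clone selected by stepwise exposure to the aziridinyl benzoquinone prodrug in culture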
T. cruzi epimastigotes = experiment: Growth inhibition of T. cruzi epimastigotes (resazurin); format: cell-based; settings: for EC50: read-out: T. cruzi EC50
L. major promastigotes = experiment: Growth inhibition of L. major promastigotes (resazurin); format: cell-based; settings: for EC50: Leishmania major, 144 h, read-out: L. major EC50
[2] = system: differentiated THP‐1 cells; experiment: Mammalian inhibition assay, differentiated THP-1 cells; format: cell-based; settings: Homo sapiens, read-out: THP‐1 EC50
[3] = system: T. brucei over expressing TbNTR (Tbntr++); experiment: microbe, parasite or virus in culture; format: cell-based; settings: for EC50: Trypanosoma brucei, read-out: EC50 Tbntr++
[4] = system: T. brucei over expressing TbCPR2 (Tbcpr2++); experiment: microbe, parasite or virus in culture; format: cell-based; settings: for EC50: Trypanosoma brucei, read-out: EC50 Tbcpr2++
[5] = system: T. brucei Tbsnm1 null mutants (ΔTbsnm1); experiment: microbe, parasite or virus in culture; format: cell-based; settings: for EC50: Trypanosoma brucei, read-out: EC50 ΔTbsnm1
Wild type T. brucei = format: cell-based
[6] = system: mouse peritoneal macrophages; experiment: Toxicity to mouse peritoneal macrophages (cell counts, Giemsa); format: cell-based, BALB/c mice; settings: Peritoneal macrophage, 120 h, read-out: EC50 towards mouse peritoneal macrophages
[7] = Trypanosoma cruzi, 336 h, epimastigotes, 14 days
[8] = 72 h, bloodstream form, 3 days, Table 1, activity of some compounds previously reported (Hall et al., 2012), read-out: T. brucei EC50
[9] = 72 h, differentiated THP‐1 cells, 3 days
[10] = Table 3, BSF T. brucei wild type, read-out: EC50 Wild type

Q: For `S=P(N1CC1)(N1CC1)N1CC1` [ThioTEPA, reference compound], which EC50 ([1]; read-out: EC50 Wild type) is on record?
A: The EC50 was 39400 ± 796 nM.

Q: And the EC50 (RH1^RC1 T. brucei)?
A: Its EC50 is 56300 ± 1960 nM.

Q: How did the EC50 (T. cruzi epimastigotes; [7]) turn out when `CC1CN1C1=C(F)C(=O)C(N2CC2C)=C(F)C1=O` (stereo not shown) [ABQ29] was run?
A: Its EC50 is 975 ± 25 nM.

Q: What about the EC50 (L. major promastigotes; promastigotes, 6 days) of the same compound?
A: The EC50 was 175 ± 5 nM.

Q: What does the source list for `N[C@@H](Cc1ccc(N(CCCl)CCCl)cc1)C(=O)O` [Melphalan]?
A: EC50 ([1]; read-out: EC50 Wild type): 8740 ± 200 nM; ratio (fold difference in EC50 between RH1^RC1 and wild type) (RH1^RC1 T. brucei): 1.2; EC50 (RH1^RC1 T. brucei): 10400 ± 230 nM

Q: For `CC1CN1C1=C(Cl)C(=O)C(N2CC2C)=C(Cl)C1=O` (stereo not shown) [ABQ27], which EC50 [1, 8] is on record?
A: The EC50 was greater than 10000 nM.

Q: What about the EC50 (T. cruzi epimastigotes; [7]) of the same compound?
A: The EC50 was 620 ± 180 nM.

Q: And the EC50 (L. major promastigotes; promastigotes, 6 days)?
A: Its EC50 is 210 ± 10 nM.

Q: Which results are given for `O=C1C(F)=C(N2CC2)C(=O)C(N2CCOCC2)=C1N1CC1` [ABQ14]?
A: EC50 ([1]; 72 h, read-out: T. brucei EC50): > 10000 nM; EC50 (T. cruzi epimastigotes; Trypanosoma cruzi, 336 h): 445 ± 30 nM; EC50 (L. major promastigotes): 2270 ± 17 nM

Q: What does the source list for `C[C@H]1CN1C1=CC(=O)C(N2C[C@@H]2C)=CC1=O` [ABQ24]?
A: T. brucei SI ([1]; Selectivity Index: fold difference in EC50 of THP‐1 line relative to parasite): <1; EC50 [1, 8]: 1470 ± 120 nM; EC50 ([1]; Table 2, parasites expressing wild type levels, read-out: EC50 Control): 1470 ± 120 nM; EC50 ([1]; Table 4, wild type T. brucei, read-out: EC50 Control): 1470 ± 120 nM; T. cruzi SI (T. cruzi epimastigotes): <11; EC50 (T. cruzi epimastigotes; [7]): 37 ± 1 nM; L. major SI (L. major promastigotes): <1; EC50 (L. major promastigotes; promastigotes, 6 days): 473 ± 123 nM; EC50 [2, 9]: < 400 nM; Fold difference in EC50 Tbntr++ relative to control [3]: 2090 ± 160 (1.42); EC50 [3]: 2090 nM; Fold difference in EC50 Tbcpr2++ relative to control [4]: 1698 ± 23 (1.16); EC50 [4]: 1700 nM; Ratio of EC50 values ΔTbsnm1 / control [5]: 0.77; Susceptibility of Tbsnm1 null mutants relative to wild type / control (fold more susceptible) [5]: no significant difference; EC50 [5]: 1130 ± 100 nM

Q: Which “Cells in G1/S phase (1N1K)” value (Wild type T. brucei) does the source give for phleomycin [reference compound] here?
A: Its value is “approximately 80%”.

Q: `O=NN(CCCl)C(=O)NC1CCCCC1` [Lomustine] was tested. Which EC50 [1, 10] did it give?
A: Its EC50 is 16600 ± 443 nM.

Q: And the “ratio (fold difference in EC50 between RH1^RC1 and wild type)” value (RH1^RC1 T. brucei)?
A: The value was 0.9.

Q: And the EC50 (RH1^RC1 T. brucei)?
A: The EC50 was 15500 ± 665 nM.

Q: With `CC1CN1C1=C(Br)C(=O)C(N2CC2C)=C(Br)C1=O` (stereo not shown) [ABQ25] as the compound, how does the EC50 [1, 8] read?
A: Its EC50 is greater than 10000 nM.

Q: What about the EC50 (L. major promastigotes; promastigotes, 6 days) of the same compound?
A: Its EC50 is 80 ± 6 nM.

Q: What about the “L. major EC50” value (L. major promastigotes; promastigotes, 6 days) of the same compound?
A: The value was “high potency”.

Q: With `C1CN1c1nc(N2CC2)nc(N2CC2)n1` [Triethylenemelamine] as the compound, how does the EC50 ([1]; read-out: EC50 Wild type) read?
A: Its EC50 is 2400 ± 86 nM.

Q: And the “ratio (fold difference in EC50 between RH1^RC1 and wild type)” value (RH1^RC1 T. brucei)?
A: Its value is 1.1.

Q: What about the EC50 (RH1^RC1 T. brucei) of the same compound?
A: Its EC50 is 2770 ± 64 nM.

Q: Which results are given for `CC1CCC(NC(=O)N(CCCl)N=O)CC1` (stereo not shown) [Semustine]?
A: EC50 ([1]; read-out: EC50 Wild type): 15000 ± 3460 nM; ratio (fold difference in EC50 between RH1^RC1 and wild type) (RH1^RC1 T. brucei): 1.1; EC50 (RH1^RC1 T. brucei): 17100 ± 3620 nM

Q: With `COC1=C(N2CC2)C(=O)C(OC)=C(N2CC2)C1=O` [ABQ6] as the compound, how does the EC50 [1, 8] read?
A: Its EC50 is 283 ± 41 nM.

Q: What about the “T. cruzi SI” value (T. cruzi epimastigotes) of the same compound?
A: The value was 5.

Q: And the EC50 (T. cruzi epimastigotes; [7])?
A: Its EC50 is 205 ± 53 nM.

Q: And the EC50 (L. major promastigotes; promastigotes, 6 days)?
A: The EC50 was 664 ± 2 nM.

Q: And the EC50 [2, 9]?
A: Its EC50 is 1070 ± 159 nM.

Q: `O=C1C=C(N2CC2)C(=O)C=C1N1CC1` [DZQ] was tested. Which “T. brucei SI” value [1] did it give?
A: The value was 1.

Q: What about the EC50 ([1]; 72 h, read-out: T. brucei EC50) of the same compound?
A: Its EC50 is 272 ± 1 nM.

Q: What about the “T. cruzi SI” value (T. cruzi epimastigotes) of the same compound?
A: The value was 36.

Q: What about the EC50 (T. cruzi epimastigotes; Trypanosoma cruzi, 336 h) of the same compound?
A: Its EC50 is less than 10 nM.

Q: And the EC50 (T. cruzi epimastigotes)?
A: The EC50 was 5 ± 1 nM.

Q: And the “L. major EC50” value (L. major promastigotes)?
A: The value was “high potency”.

Q: And the “L. major SI” value (L. major promastigotes)?
A: The value was 3.

Q: And the EC50 (L. major promastigotes)?
A: Its EC50 is 60 ± 1 nM.

Q: And the EC50 ([2]; THP-1, 72 h)?
A: Its EC50 is 181 ± 5 nM.

Q: What about the EC50 [6] of the same compound?
A: Its EC50 is 255 nM.

Q: And the “Fold difference in EC50 Tbntr++ relative to control” value [3]?
A: The value was 90 ± 3 (0.28 ).

Q: And the EC50 [3]?
A: Its EC50 is 90 nM.

Q: And the “Ratio of EC50 values ΔTbsnm1 / control” value [5]?
A: Its value is 0.27.

Q: And the EC50 [5]?
A: Its EC50 is 43 ± 2 nM.

Q: What does the source list for `CC1=C(N2CC2)C(=O)C(C)=C(N2CC2)C1=O` [MeDZQ]?
A: T. brucei SI [1]: 1; EC50 ([1]; 72 h, read-out: T. brucei EC50): 698 ± 57 nM; EC50 ([1]; read-out: EC50 Control): 740 ± 18 nM; T. cruzi SI (T. cruzi epimastigotes): 16; EC50 (T. cruzi epimastigotes; Trypanosoma cruzi, 336 h): 55 ± 2 nM; L. major SI (L. major promastigotes): 2; EC50 (L. major promastigotes): 560 ± 139 nM; EC50 ([2]; THP-1, 72 h): 885 ± 23 nM; Fold difference in EC50 Tbntr++ relative to control [3]: 115 ± 3 (0.16 ); EC50 [3]: 115 nM

Q: With `NCCCC(N)(C(=O)O)C(F)F` (stereo not shown) [DFMO, difluoromethylornithine, reference compound] as the compound, how does the EC50 [1, 10] read?
A: The EC50 was 16800 ± 2690 nM.

Q: And the EC50 ([1]; read-out: EC50 Control)?
A: The EC50 was 27500 ± 108 nM.

Q: And the “Fold difference in EC50 Tbntr++ relative to control” value [3]?
A: Its value is 30720 ± 1330 (1.12).

Q: And the EC50 [3]?
A: The EC50 was 30700 nM.

Q: And the “Fold difference in EC50 Tbcpr2++ relative to control” value [4]?
A: The value was 33250 ± 5123 (1.21).

Q: What about the EC50 [4] of the same compound?
A: Its EC50 is 33200 nM.

Q: And the “ratio (fold difference in EC50 between RH1^RC1 and wild type)” value (RH1^RC1 T. brucei)?
A: The value was 1.3.

Q: What about the EC50 (RH1^RC1 T. brucei) of the same compound?
A: Its EC50 is 22200 ± 383 nM.

Q: And the “Ratio of EC50 values ΔTbsnm1 / control” value [5]?
A: The value was 0.99.

Q: What about the “Susceptibility of Tbsnm1 null mutants relative to wild type / control (fold more susceptible)” value [5] of the same compound?
A: The value was “no significant difference”.

Q: And the EC50 [5]?
A: Its EC50 is 27100 ± 850 nM.
